Results: patent EP2812315B1, “PYRROLIC DERIVATIVES, PROCESSES FOR PREPARING THE SAME AND THEIR USES AS A DRUG” (Universite Joseph Fourier, priority 2012, dated 2013)
Converted amounts (≈) assume the structure as drawn.

Experiments:
Type in all cases: cell-based
MRC5 = assay: In vitro cytotoxicity; details: MRC5 (human lung fibroblast), triplicate; for inhibition at 10 µM: 10^-5 M in DMSO, read-out: % of cellular growth inhibition; for inhibition at 1 µM: 10^-6 M in DMSO, read-out: % of cellular growth inhibition (converted)
Procedure: (§1) In vitro cytotoxicity was assayed on three cell lines - KB (human mouth carcinoma), MCR5 (human lung fibroblast) and HCT116 (human colon tumor). Results are presented in table III as % of cellular growth inhibition in presence of 10^-5 M and 10^-6 M of the tested bis-pyrrolic derivatives in DMSO (triplicate).

[1] = system: HCT116 (human colon tumor); assay: In vitro cytotoxicity; details: triplicate; for inhibition at 10 µM: HCT-116, 10^-5 M in DMSO, read-out: % of cellular growth inhibition; for inhibition at 1 µM: HCT-116, 10^-6 M in DMSO, read-out: % of cellular growth inhibition (converted)
Procedure: as §1

[2] = system: KB (human mouth carcinoma); assay: In vitro cytotoxicity; details: triplicate; for inhibition at 10 µM: 10^-5 M in DMSO, read-out: % of cellular growth inhibition; for inhibition at 1 µM: 10^-6 M in DMSO, read-out: % of cellular growth inhibition (converted)
Procedure: as §1

[3] = system: Staphylococcus aureus ATCC 25923; assay: MIC determination, microdilution method (CLSI M07-A8); details: ATCC25923; Staphylococcus aureus ATCC 25923; 5 x 10^5 CFU/mL; 18 hours incubation; read-out: MIC
Procedure: (§2) The microdilution method recommended by the Clinical and Laboratory Standard Institute [M07-A8, Vol.29, N°2] was used. The activity of pyrrolic compounds was tested against 29 bacterial strains belonging to 17 different species and 12 different genera (Staphylococcus, Streptococcus, Enterococcus, […], Bacillus, Haetttophilus, Escherichia, Klebsiella, Enterobacter, Serratia, Pseudomonas, and Acinetobacter). Bacterial inocula were prepared in Mueller Hinton broth (MH2, bioMérieux, Marcy L'Etoile, France), supplemented with 10% sheep blood for fastidious species (i.e., Streptococcus pneumoniae and Haemophilus influenzae). They were dispensed in 96 well microtiter plates (5 x 10^5 CFU/mL of final inoculum). Pyrrolic compounds were added to the wells as to obtain two-fold serial concentrations (0.25-64 mg/L). Plates were incubated at 37°C, in 5% CO2 enriched atmosphere for fastidious species only. MICs were read after 18 hours incubation of cultures, and corresponded to the minimum pyrrolic compound concentration that allowed complete visual growth inhibition of bacteria. Drug-free cultures served as growth controls. Cultures receiving gentamicine, ciprofloxacine or cefotaxime served as positive controls.

[4] = system: Klebsiella pneumoniae ATCC 35657; assay: as above; details: ATCC35657; Klebsiella pneumoniae ATCC 35657; 18 hours incubation; read-out: MIC
Procedure: as §2

[5] = system: Staphylococcus epidermidis ATCC 12228; assay: as above; details: ATCC12228; Staphylococcus epidermidis ATCC 12228; 5 x 10^5 CFU/mL; 18 hours incubation; read-out: MIC
Procedure: as §2

[6] = system: Staphylococcus aureus (SA-1199B, NorA); assay: Other MIC determination, microdilution method (CLSI M07-A9) with modifications; details: 18 h
Procedure: The microdilution method recommended by the Clinical and Laboratory Standard Institute [M07-A9, Vol.32, N°2] was used with the following modifications.
Bacterial inocula were prepared in Mueller Hinton broth (MH2, BioMérieux, Marcy L'Etoile, France). They were dispensed in 96 well microtiter plates (10^6 CFU/ml of final inoculum, 192 µL per well).
To avoid cross-contaminations in microtiter plates, one row was left blank between each strain tested. Microplates were incubated for 18h at 37 °C in ambient air. Then MICs were read visually and, in case of visual reading difficulties, confirmed using a spectrophotometer at a wavelength of 630 nm (BioTek® EL808 Absorbance Microplate Reader). MICs corresponded to the minimum pyrrolic compound concentrations that allowed complete visual growth inhibition of bacteria. Drug-free cultures served as growth controls.
We used four Staphylococcus aureus strains. Two reference strains were provided by the French reference center for Staphylococcus spp. (Lyon, France), including one methicillin-susceptible (MSSA 476) and one methicillin-resistant (MRSA 252) S. aureus strains. The two remaining S. aureus strains were purchased from the CRBIP (Centre de Ressources Biologiques de l'Institut Pasteur): a vancomycin-intermediate strain (ATCC 106414) and a S. aureus strain (SA-1199B) resistant to fluoroquinolones due to overexpression of the NorA multidrug efflux pump. Coagulase-negative Staphylococcus strains included three reference strains purchased from CRBIP: a methicillin-susceptible S. epidermidis strain (ATCC 12228), a methicillin-resistant S. epidermidis strain (ATCC 49461), and a methicillin-susceptible S. sciuri strain (ATCC 29061). We also used 37 clinical strains belonging to the following coagulase-negative Staphylococcus species: S. arlettae (two strains), S. capitis (nine strains), S. epidermidis (one strain), S. haemolyticus (six strains), S. hominis (eight strains), S. lugdunensis (one strain), S. massiliensis (one strain), S. pettenkoferi (two strains), S. saprophyticus (two strains), S. simulans (one strain), and S. warneri (four strains) . Identification of the clinical strains was first obtained using VITEK® 2 System (Biomérieux) and confirmed by amplification and sequencing of the tuf gene (Reference: Bergeron, M., O. Dauwalder, M. Gouy, A.-M. Freydiere, M. Bes, H. Meugnier, Y. Benito, J. Etienne, G. Lina, F. Vandenesch, and S. Boisset. Species identification of staphylococci by amplification and sequencing of the tuf gene compared to the gap gene and by matrix-assisted laser desorption ionization time-of-flight mass spectrometry, Eur. J. Clin. Microbial. Infect. Dis. 2011, 30, 343-354).
The activity of pyrrolic compounds 3c, 3e-3j and 3n was first tested against 12 Staphylococcus sp. strains, including 7 reference strains and five clinical strains. The MICs of these compounds against Staphylococcus aureus ATCC 106414 (VISA) and Staphylococcus epidermidis ATCC 12228 are in accordance with those described in Tables I and II.

| SMILES | inhibition at 10 µM (MRC5) [%] | inhibition at 10 µM [1] [%] | inhibition at 10 µM [2] [%] | MIC [3] [µg/mL] | MIC [4] [µg/mL] | MIC [5] [µg/mL] | MIC [6] [µg/mL] | inhibition at 1 µM (MRC5) [%] | inhibition at 1 µM [1] [%] | inhibition at 1 µM [2] [%] |
| --- | --- | --- | --- | --- | --- | --- | --- | --- | --- | --- |
| COC(=O)c1cccc(C(c2[nH]c(C)c(C(C)=O)c2C)c2[nH]c(C)c(C(C)=O)c2C)c1 [3j, Methyl-3-[bis(4-acetyl-3,5-dimethyl-1H-pyrrol-2-yl)methyl]benzoate] | 5 ± 1 | 1 ± 3 | 11 ± 3 | 4 (≈ 9.51 µM) | > 32 | > 128 | 8 (≈ 19 µM) |  |  |  |
| CC(=O)c1c(C)[nH]c(C(c2[nH]c(C)c(C(C)=O)c2C)c2cccc3ccccc23)c1C [3h] | 25 ± 4 | 53 ± 2 | 54 ± 4 | 1 (≈ 2.42 µM) | > 128 | > 128 | 2 (≈ 4.85 µM) | 0 | 5 | 0 |
| CC(=O)c1c(C)[nH]c(C(c2[nH]c(C)c(C(C)=O)c2C)c2csc3ccc(Br)cc23)c1C [3n] | 96 ± 1 | 83 ± 1 | 100 ± 1 |  |  |  |  | 67 | 47 | 81 |
| CC(=O)c1c(C)[nH]c(C(c2cc3ccccc3s2)c2[nH]c(C)c(C(C)=O)c2C)c1C [3f] | 0 | 19 ± 4 | 23 ± 3 | 2 (≈ 4.78 µM) | > 128 | > 128 | 2 (≈ 4.78 µM) |  |  |  |
| CC(=O)c1c(C)[nH]c(C(c2[nH]c(C)c(C(C)=O)c2C)c2csc3ccccc23)c1C [3i] | 84 ± 1 | 50 ± 1 | 95 ± 1 | 1 (≈ 2.39 µM) | > 128 | > 128 | 1 (≈ 2.39 µM) | 0 | 10 | 0 |
| CC(=O)c1c(C)[nH]c(C(c2cc3ccccc3o2)c2[nH]c(C)c(C(C)=O)c2C)c1C [3e] | 7 ± 1 | 24 ± 6 | 2 ± 3 | 4 (≈ 9.94 µM) | > 128 | > 128 |  |  |  |  |
| CC(=O)c1c(C)[nH]c(C(c2ccc(Cl)cc2)c2[nH]c(C)c(C(C)=O)c2C)c1C [3c] | 9 ± 1 | 17 ± 11 | 27 ± 7 | 4 (≈ 10.1 µM) | > 128 | > 128 |  |  |  |  |
| CC(=O)c1c(C)[nH]c(C(c2ccc(F)cc2)c2[nH]c(C)c(C(C)=O)c2C)c1C [3g] | 2 ± 1 | 3 ± 6 | 11 ± 3 | 2 (≈ 5.26 µM) | > 32 | > 128 | 8 (≈ 21 µM) |  |  |  |
